The subject of one experiment is Mino cells. Put plainly: Inhibition of cell proliferation, Mino cells (Cell Viability Assay, 72 h). The experiment is classed as cell-based, human. As for the experimental part:
(§1) SU-DHL-4, Mino, and SU-DHL-6 cells, in the culture medium of RPMI1640+10% FBS, were cultured in an incubator at 37° C. under 5% CO2. Cells were plated in a 96-well plate. Specifically, SU-DHL-4 cells were at 20000/well, Mino and SU-DHL-6 cells were at 5000/well, with 90 μL/well. 10 μL of the compounds at different concentrations were added to each well. There were 3 replicate wells for each concentration, and the last column, added with DMSO, was used as a vehicle control group. The cultures were continued for 72 hours at 37° C. under 5% CO2. After 72 hours, 100 μL of detection reagent (Cell Viability Assay, Promega, G7573) was added to each well, and the cultures were uniformly mixed for 2 minutes, and incubated at room temperature for 10 minutes. The […] signal value was measured with a microplate reader (PHERAstar FSX). The IC50 value of the compound on cell proliferation inhibition was calculated using origin9.2 software, and the inhibition rate at the highest concentration of the compound (Max inhi.%) was calculated according to formula (1).
(§2) Max inhi.%=(1−T72administration/T72vehicle)×100 Formula (1).

The test system of the next experiment is SU-DHL-6 cells. Put plainly: Inhibition of cell proliferation, SU-DHL-6 cells (Cell Viability Assay, 72 h). The experiment is classed as cell-based, human. As for the experimental part: as §1, §2

Read-outs that look alike come from different tables or passages of the source.

The term IC50 denotes the concentration needed to halve the response being measured. For the compound `Nc1ncnc2c1c(-c1ccc(Oc3ccccc3)cc1)nn2C1CCN(C2CN(CC3CN(c4cccc5c4C(=O)N(C4CCC(=O)NC4=O)C5=O)C3)C2)CC1` (stereo not drawn) [Compound 105, 4-(3-((3-(4-(4-amino-3-(4-phenoxyphenyl)-1H-pyrazolo[3,4-d]pyrimidin-1-yl)piperidin-1-yl)azetidin-1-yl)methyl)azetidin-1-yl)-2-(2,6-dioxopiperidin-3-yl)isoindoline-1,3-dione], the IC50 in the experiment with Mino cells (Homo sapiens, MINO, 72 h) worked out at 208 nM; in the experiment on SU-DHL-6 cells (Homo sapiens, SU-DHL-6, 72 h), 331 nM.

With `Nc1ncnc2c1c(-c1ccc(Oc3ccccc3)cc1)nn2C1CCN(C2C[C@@H]3CN(CC4CN(c5ccc6c(c5)C(=O)N(C5CCC(=O)NC5=O)C6=O)C4)C[C@@H]3C2)CC1` (stereo partly drawn) [Trifluoroacetate of compound 100, 5-(3-(((3aR,6aS)-5-(4-(4-amino-3-(4-phenoxyphenyl)-1H-pyrazolo[3,4-d]pyrimidin-1-yl)piperidin-1-yl)hexahydrocyclopenta[c]pyrrol-2(1H)-yl)methyl)azetidin-1-yl)-2-(2,6-dioxopiperidin-3-yl)isoindoline-1,3-dione], the IC50 is 123 nM in the experiment with Mino cells (Homo sapiens, MINO, 72 h) and 99 nM in the experiment on SU-DHL-6 cells (Homo sapiens, SU-DHL-6, 72 h).

For `Nc1ncnc2c1c(-c1ccc(Oc3ccccc3)cc1)nn2C1CCN(C2CC3(CCN(CC4CN(c5ccc6c(c5)C(=O)N(C5CCC(=O)NC5=O)C6=O)C4)CC3)C2)CC1` (stereo not drawn) [Trifluoroacetate of compound 101, 5-(3-((2-(4-(4-amino-3-(4-phenoxyphenyl)-1H-pyrazolo[3,4-d]pyrimidin-1-yl)piperidin-1-yl)-7-azaspiro[3.5]nonan-7-yl)methyl)azetidin-1-yl)-2-(2,6-dioxopiperidin-3-yl)isoindoline-1,3-dione], the IC50 in the experiment with Mino cells (Homo sapiens, MINO, 72 h) was 77 nM; with SU-DHL-6 cells (Homo sapiens, SU-DHL-6, 72 h), 77 nM.

As to `Nc1ncnc2c1c(-c1ccc(Oc3ccccc3)cc1)nn2C1CCN(C2CN(C3CN(CC4CN(c5ccc6c(c5)C(=O)N(C5CCC(=O)NC5=O)C6=O)C4)C3)C2)CC1` (stereo not drawn) [Trifluoroacetate of compound 102, 5-(3-((3-(4-(4-amino-3-(4-phenoxyphenyl)-1H-pyrazolo[3,4-d]pyrimidin-1-yl)piperidin-1-yl)-[1,3′-biazetidin]-1′-yl)methyl)azetidin-1-yl)-2-(2,6-dioxopiperidin-3-yl)isoindoline-1,3-dione], the concentration for half-maximal inhibition (IC50) with Mino cells (Homo sapiens, MINO, 72 h) was 42 nM; in the experiment on SU-DHL-6 cells (Homo sapiens, SU-DHL-6, 72 h) it was 23 nM.

As to `Nc1ncnc2c1c(-c1ccc(Oc3ccccc3)cc1)nn2C1CCN(C2CN(CC3CN(c4ccc5c(c4)CN(C4CCC(=O)NC4=O)C5=O)C3)C2)CC1` (stereo not drawn) [Trifluoroacetate of compound 107, 3-(5-(3-((3-(4-(4-amino-3-(4-phenoxyphenyl)-1H-pyrazolo[3,4-d]pyrimidin-1-yl)piperidin-1-yl)azetidin-1-yl)methyl)azetidin-1-yl)-1-oxoisoindolin-2-yl)piperidine-2,6-dione], the IC50 in the experiment with Mino cells stood at 34 nM; with SU-DHL-6 cells, 22 nM.

Regarding `Nc1ncnc2c1c(-c1ccc(Oc3ccccc3)cc1)nn2C1CCN(C2CN(CC3CN(Cc4ccc5c(c4)C(=O)N(C4CCC(=O)NC4=O)C5=O)C3)C2)CC1` (stereo not drawn) [Trifluoroacetate of compound 109, 5-((3-((3-(4-(4-amino-3-(4-phenoxyphenyl)-1H-pyrazolo[3,4-d]pyrimidin-1-yl)piperidin-1-yl)azetidin-1-yl)methyl)azetidin-1-yl)methyl)-2-(2,6-dioxopiperidin-3-yl)isoindoline-1,3-dione], the IC50 is 356 nM with Mino cells and 145 nM with SU-DHL-6 cells.

These data come from patent publication US20230248833A1, “COMPOUND HAVING BTK KINASE DEGRADING ACTIVITY, AND PREPARATION METHOD AND PHARMACEUTICAL USE THEREFOR” (SICHUAN HAISCO PHARMACEUTICAL CO., LTD., priority 2020, published 2023).
